Laboratory results from patent US20160220677A1, “STABLE AQUEOUS COMPOSITIONS OF PROSTGLANDIN AGONIST PRODRUGS AND METHODS FOR USE THEREOF” (Allergan, Inc., priority 2009, published 2016).

Assay: Aqueous stability of formulations, % recovery by HPLC
Type: physicochemical
Conditions: 30° C.; 45 days; each formulation (Formulations 1-4)
Description: The aqueous stability of invention compositions was evaluated using Compounds 2 and 3.
The formulations were analyzed by HPLC with the following measurement parameters:
Column: BioWidePore C18 (SUPELCO), 4.6 mm×25 cm, 5 μm Mobile Phase A: 0.1% (V/V) trifluoroacetic acid (TFA) in di-water, 0.8 micron filtered Mobile Phase B: 100% acetonitrile, 0.8 micron filtered Column temp: Ambient Injection volume: 30 μL
Flow: 1.0 mL/min Run time: 25 minutes Sample diluent: 50% acetonitrile in di-water
Using the above HPLC parameters, the following stability data was generated: […]

CCCCCC(O)c1ccc(N2C(=O)CC[C@@H]2CCCc2ccc(C(=O)OCCO)s2)cc1 (stereo partly shown) [Compound 2]
stability in each formulation: stable
